Laboratory results as given in ChEMBL document CHEMBL5357051, “Quinoline, Indole, and Isogranatanine Alkaloids from Malayan Leuconotis eugeniifolia” (J Nat Prod, 2024).

Experiments:
[1] = system: HT-29; assay: Cytotoxicity against human HT-29 cells assessed as inhibition of cell growth incubated for 72 hrs by MTT assay; type: functional, cell-based; settings: HT-29, 72 h
[2] = system: HCT-116; assay: Cytotoxicity against human HCT-116 cells assessed as inhibition of cell growth incubated for 72 hrs by MTT assay; type: functional, cell-based; settings: HCT-116, 72 h

CC[C@@]12CCC[N+]3([O-])CC[C@@]4(C(=Nc5ccccc54)[C@@H](O)C1)[C@@H]23 (stereo partly specified)
IC50 [1]: > 10 µM | IC50 [2]: > 10 µM

CC[C@@]12CCC[N@@+]3([O-])C[C@@H]4[C@@](O)(c5ccccc5N[C@]4(O)CC1)[C@@H]23
IC50 [1]: 7.1 µM | IC50 [2]: > 10 µM

CC[C@@]12CCO[C@@H]1N(CC[C@]1(O)C(=O)Nc3ccccc31)CC[C@H]2O
IC50 [1]: > 10 µM | IC50 [2]: > 10 µM

COc1cccc2c1C(=O)c1c(O)c3c(c(O)c1C2=O)C[C@@](O)(C(=O)CO)C[C@@H]3O[C@H]1C[C@H](N)[C@H](O)[C@H](C)O1 [DOXORUBICIN]
IC50 [1]: 0.06 µM | IC50 [2]: 0.04 µM

CC[C@]12CCCN(C1)C(=O)CC2
IC50 [1]: 7.2 µM | IC50 [2]: > 10 µM

CC[C@]1(CCC(=O)OC)CCCNC1
IC50 [1]: > 10 µM | IC50 [2]: > 10 µM

COC(=O)[C@H]1CO[C@H](C)[C@]2(O)C[N@+]3([O-])CCc4c([nH]c5ccccc45)[C@@H]3C[C@H]12
IC50 [1]: > 10 µM | IC50 [2]: > 10 µM

CC[C@]12CCCN[C@]13/C(=C\C(=O)O)c1ccccc1N3C(=O)CC2
IC50 [1]: > 10 µM | IC50 [2]: > 10 µM
